Assay [1] relates to nociceptive response to formalin injected into the rat paw. Nature of the assay: Nociceptive response to formalin injected into the rat paw. In kind it is in vivo.
The next assay relates to anandamide levels. Kind of assay: Anandamide levels in the periaqueductal grey after intra-PAG injection. In kind it is in vivo. To be noted: 4 μg/rat intra-PAG, measured 20 min following injection.
Assay [2] relates to fatty acid amide hydrolase (FAAH). Nature of the assay: FAAH inhibition in vitro. Type of assay: biochemical. The source says: Similar results were obtained with other congeners, provided that at least one double bond was present in the acyl chain.
Assay [3] deals with chronic constrictory injury (CCI) of the sciatic nerve. Nature of the assay: CCI neuropathic pain, mechanical allodynia (Dynamic Plantar Anaesthesiometer, paw withdrawal threshold). Type of assay: in vivo, rat. To be noted: CCI rats, i.p. for 7 days; AA-5-HT 5 mg/kg, URB-597 3 mg/kg; FIG. 3. On the procedure: (§1) Neuropathic pain was induced by chronic constrictory injury (CCI) of the sciatic nerve. Rats were anaesthetized with sodium pentobarbital (60 mg/kg i.p.), the right sciatic nerve was exposed and four ligatures were loosely tied around the nerve just proximal to the trifurcation. Control rats underwent a sham surgery with exposure of the sciatic nerve without ligature.
(§2) Changes in thermal and mechanical nociceptive responses have been evaluated using a Plantar Test Apparatus and Dynamic Plantar Anaesthesiometer (Ugo Basile, Varese, Italy). Thermal paw withdrawal latency and mechanical paw withdrawal threshold (PWL and PWT) were measured (in sec and grams, respectively) for each group of rats every 30 min for 3 h.

The test system is the same in assay [4]. Nature of the assay: CCI neuropathic pain, thermal nociceptive response (Plantar Test, paw withdrawal latency). In kind it is in vivo, rat. To be noted: CCI rats, i.p. for 7 days; AA-5-HT 5 mg/kg, URB-597 3 mg/kg; FIG. 4. As to the method: as §1, §2
Assay [5] has as its target T1, TRPV1 channels (Homo sapiens, UniProt Q8NER1). Kind of assay: Blocking of TRPV1 channel activation by capsaicin. In kind it is cell-based. To be noted: capsaicin 100 nM; FIG. 1A; read-out: IC50 against capsaicin.
The test system of assay [6] is OFF cells of the rostral ventromedial medulla. Kind of assay: Inhibitory effect of formalin on OFF cells of the rostral ventromedial medulla. In kind it is in vivo, rat. To be noted: FIG. 2B.
The target of assay [7] is T1, TRPV1 channels. To be noted: read-out: IC50 against capsaicin, previously reported; cited from earlier work.

Like-named read-outs stand apart in the source and are kept apart here.

T1 sequence (Q8NER1 whole entry): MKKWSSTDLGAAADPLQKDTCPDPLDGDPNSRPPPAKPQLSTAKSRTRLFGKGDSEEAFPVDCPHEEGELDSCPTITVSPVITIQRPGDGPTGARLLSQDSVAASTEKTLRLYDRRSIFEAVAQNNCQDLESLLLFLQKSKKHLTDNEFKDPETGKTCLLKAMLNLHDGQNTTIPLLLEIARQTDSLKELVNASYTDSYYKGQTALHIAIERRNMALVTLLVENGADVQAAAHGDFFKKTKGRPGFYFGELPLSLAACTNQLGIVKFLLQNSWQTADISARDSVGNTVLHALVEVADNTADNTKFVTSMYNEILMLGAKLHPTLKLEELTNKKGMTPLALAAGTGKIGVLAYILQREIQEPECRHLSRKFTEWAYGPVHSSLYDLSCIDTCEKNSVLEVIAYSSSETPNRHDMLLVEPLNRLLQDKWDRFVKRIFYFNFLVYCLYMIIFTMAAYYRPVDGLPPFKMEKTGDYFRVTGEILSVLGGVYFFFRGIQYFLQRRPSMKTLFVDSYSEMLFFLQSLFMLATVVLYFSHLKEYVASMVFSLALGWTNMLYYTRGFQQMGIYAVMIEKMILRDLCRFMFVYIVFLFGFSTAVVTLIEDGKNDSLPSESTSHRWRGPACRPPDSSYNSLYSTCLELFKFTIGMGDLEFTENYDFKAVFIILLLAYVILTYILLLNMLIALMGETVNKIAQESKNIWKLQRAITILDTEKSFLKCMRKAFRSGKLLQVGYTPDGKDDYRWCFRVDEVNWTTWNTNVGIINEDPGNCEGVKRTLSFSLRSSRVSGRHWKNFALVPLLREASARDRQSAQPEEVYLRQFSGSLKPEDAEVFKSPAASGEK

For orientation: IC50 means the point on the concentration scale where inhibition reaches its midpoint. On to `CCCCC/C=C\C/C=C\C/C=C\C/C=C\CCCC(=O)NCCc1c[nH]c2ccc(O)cc12` [AA-5-HT, N-arachidonoyl-serotonin], for which the “nociceptive response to formalin” value in assay [1] (4 μg/rat injected into the periaqueductal grey (PAG), FIG. 2A) is reported as “potently inhibited both phases”. Moreover, the “nocifensive response to formalin” value in assay [1] (1 mg/rat, s.c., injected into the paw) is recorded as “selectively blocked the 2nd, inflammatory phase”. For the same compound, the “anandamide levels in the PAG” value with anandamide levels was “elevated”. For the same compound, in assay [2], the “type of FAAH inhibition” value is given as “mixed inhibitors”. Further, in assay [2] (in vitro), the “less potent than URB-597 at inhibiting FAAH” value turned out to be 100 fold. Moreover, the mechanical allodynia result in assay [3] was “totally abolished”. In assay [4], the thermal nociceptive responses result is reported as “as efficacious as URB-597”. In addition, the IC50 on TRPV1 channels [5] was determined as 130 nM. Further, the “inhibitory effect of formalin on the OFF cells of the rostral ventromedial medulla” value in assay [6] (supraspinal level) is “blocking the inhibitory effect of formalin”.
As to `NC(=O)c1cccc(-c2cccc(OC(=O)NC3CCCCC3)c2)c1` [URB-597, reference compound], the mechanical allodynia result in assay [3] was “ineffective”. In addition, the thermal nociceptive responses entry in assay [4] is “reducing thermal nociceptive responses”.
Regarding `Oc1cc2c(cc1O)CN(C(=S)NCCc1ccc(Cl)cc1)CCC2` [capsazepine, reference compound], the “effect on the anti-hyperalgesic effect of AA-5-HT” value in assay [1] (AA-5-HT 4 μg/rat intra-PAG, AM251 (nmol/rat), capsazepine 6 nmol/rat) is “occluded”. Moreover, in assay [1] (AA-5-HT 1 mg/rat s.c. into the paw), the “effect on the action of AA-5-HT injected into the paw” value is on record as “occluded”. In addition, at TRPV1 channels [7], the IC50 was 60 nM. Moreover, the “effect on the action of AA-5-HT on OFF cells” value in assay [6] was “occluded”.

The values above are taken from patent US20070105940A1, “Method for treating pain” (ALLERGAN, INC., priority 2005, published 2007).
